Test results reported in ChEMBL document CHEMBL1201862, “PubChem BioAssay data set” (2004).
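How tested: cells in 96-well plates exposed to compound for 48 hours at five concentrations. Abbreviation: GI50, concentration required for 50% inhibition of growth.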 The source made the active and inactive calls. Rule as the data show it: active = GI50 up to about 1.1 µM and inactive = higher.

How the values were obtained:
Test in all cases: inhibition of tumour cell growth, NCI panel, 48 h
[1] = test system: EKVX
[2] = test system: OVCAR-3
[3] = test system: U-251
[4] = test system: NCI/ADR-RES
[5] = test system: PC-3
[6] = test system: UO-31
[7] = test system: HCT-116
[8] = test system: KM12
[9] = test system: ACHN
[10] = test system: SNB-75
[11] = test system: SN12C
[12] = test system: UACC-62
[13] = test system: MDA-MB-435
[14] = test system: UACC-257
[15] = test system: RXF 393
[16] = test system: SK-MEL-2
[17] = test system: NCI-H522
[18] = test system: SK-OV-3
[19] = test system: MDA-N
[20] = test system: HOP-92

Measured: GI50

CN(C)c1nncc2[nH]cnc12
inactive: [1] > 100 µM | [2] > 100 µM | [3] > 100 µM | [4] > 100 µM | [5] > 100 µM | [6] > 100 µM | [7] > 100 µM | [8] 74.8 µM | [9] > 100 µM | [10] > 100 µM | [11] > 100 µM | [12] > 100 µM | [13] > 100 µM | [14] > 100 µM | [15] > 100 µM | [16] > 100 µM

CC[C@]1(Cc2ccc(OC)c(OC)c2)[C@@H]2C[C@@H](C3OCCO3)ON2O[C@H](OC2CCCC2(c2ccccc2)c2ccccc2)[C@@H]1OC(C)=O (some centres not stated)
inactive: [1] 21.1 µM | [2] 12.7 µM | [3] 33.2 µM | [4] 28.9 µM | [5] 24.4 µM | [6] 20.6 µM | [7] 17.4 µM | [8] 15.6 µM | [17] 15.1 µM | [18] 43.1 µM | [9] 18.1 µM | [10] 24 µM | [11] 31.3 µM | [19] 36.1 µM | [12] 37.4 µM | [13] 21.5 µM | [14] 19.6 µM | [16] 15.7 µM

Nc1ccc(Nc2c3ccccc3nc3ccccc23)cc1
inactive: [1] 8.51 µM | [2] 3.89 µM | [3] 4.4 µM | [4] 4.9 µM | [5] 4.75 µM | [7] 3.15 µM | [8] 8.05 µM | [17] 4.79 µM | [18] 5.5 µM | [9] 1.89 µM | [11] 2.88 µM | [19] 5.12 µM | [12] 1.77 µM | [13] 5.51 µM | [14] > 10 µM | [15] > 10 µM | [16] 7.87 µM

CC(C)c1c(O)c(O)c2c(c1O)C(=O)C(O)=C1C(C)(C)CCC[C@@]12C
inactive: [1] 2.9 µM | [2] 3.13 µM | [3] 2.77 µM | [5] 2.64 µM | [6] 2.32 µM | [7] 3.4 µM | [8] 3.44 µM | [17] 3.56 µM | [18] 3.81 µM | [9] 2.96 µM | [10] 3.05 µM | [11] 3.23 µM | [12] 3.86 µM | [13] 2.96 µM | [20] 1.89 µM | [14] 2.67 µM | [15] 2.86 µM | [16] 3.76 µM

COc1cccc(C(=O)N2CCc3ccccc32)c1OC
inactive: [1] > 100 µM | [2] 38.5 µM | [3] 52.7 µM | [6] > 100 µM | [7] 56.5 µM | [8] 34.7 µM | [17] 47.6 µM | [18] 48.8 µM | [9] 64.9 µM | [10] 68.4 µM | [11] > 100 µM | [12] 47 µM | [20] 53.5 µM | [14] 53.1 µM | [15] 63.1 µM | [16] > 100 µM

COc1ccc(Cn2nc(OCc3ccccc3)c3cc([N+](=O)[O-])ccc32)cc1
inactive: [2] > 100 µM | [4] > 100 µM | [8] > 100 µM | [17] > 100 µM | [18] > 100 µM | [9] > 100 µM | [10] > 100 µM | [11] > 100 µM | [19] > 100 µM | [12] > 100 µM | [13] > 100 µM | [14] > 100 µM | [15] > 100 µM | [16] > 100 µM

OCCN(/N=C\c1ccc2ccccc2c1)C1=NCCN1
inactive: [1] 40.5 µM | [2] 23.2 µM | [3] 24.9 µM | [5] 24.9 µM | [6] 54.7 µM | [7] 26.7 µM | [8] 38.2 µM | [18] 47.9 µM | [9] 29.1 µM | [10] 20.7 µM | [11] 25.3 µM | [19] 17.2 µM | [12] 21.3 µM | [13] 16.9 µM | [20] 16 µM | [15] 11.4 µM | [16] 20.3 µM

COC(=O)c1c(C)cccc1/C=C1\Cc2cc(C)cc(C)c2C1=O
inactive: [1] 37.6 µM | [2] 50.6 µM | [3] 15.3 µM | [5] > 100 µM | [6] > 100 µM | [7] 36.8 µM | [8] > 100 µM | [17] 11.2 µM | [9] 27.9 µM | [10] 12.9 µM | [11] > 100 µM | [19] > 100 µM | [12] 10 µM | [20] 17.9 µM | [14] > 100 µM | [15] 20.7 µM | [16] 13.2 µM

CCc1c(C)[nH]c2c1/C(=N/N=C1\CCCc3[nH]c(C)c(CC)c31)CCC2
inactive: [1] 33 µM | [2] 14.5 µM | [3] 17 µM | [6] 14.5 µM | [7] 16.9 µM | [8] 15.7 µM | [17] 14.3 µM | [18] 30.8 µM | [9] 18.6 µM | [10] 20.8 µM | [11] 29.2 µM | [12] 18.5 µM | [20] 14.5 µM | [14] 17.5 µM | [15] 22.6 µM | [16] > 100 µM

CCOc1ccc(/N=C/C=C(\Cl)c2ccc3ccccc3c2)cc1
inactive: [1] 27.2 µM | [2] 15.2 µM | [3] 17.5 µM | [4] 12.1 µM | [5] 16.5 µM | [6] 15.2 µM | [7] 9.14 µM | [8] 16.3 µM | [17] 19.5 µM | [18] 19.7 µM | [9] 17.7 µM | [10] 14.3 µM | [11] 17.4 µM | [12] 15.8 µM | [13] 19.4 µM | [20] 15.3 µM | [14] 15.9 µM | [15] 15.3 µM | [16] 19.6 µM

CN(C)CCNC(=O)c1cc([N+](=O)[O-])cn1C
inactive: [1] > 100 µM | [2] > 100 µM | [3] > 100 µM | [5] > 100 µM | [6] > 100 µM | [7] > 100 µM | [8] > 100 µM | [17] > 100 µM | [18] > 100 µM | [9] > 100 µM | [10] > 100 µM | [11] > 100 µM | [19] > 100 µM | [12] > 100 µM | [13] > 100 µM | [14] > 100 µM | [15] > 100 µM | [16] > 100 µM

Cc1cc(C2(O)C=C(C(C)(C)C)C(=O)C(C(C)(C)C)=C2)c(C)cc1C1(O)C=C(C(C)(C)C)C(=O)C(C(C)(C)C)=C1
inactive: [1] > 100 µM | [3] > 100 µM | [4] > 100 µM | [5] > 100 µM | [6] > 100 µM | [7] > 100 µM | [8] > 100 µM | [17] > 100 µM | [18] > 100 µM | [9] > 100 µM | [10] > 100 µM | [11] > 100 µM | [19] > 100 µM | [12] > 100 µM | [14] > 100 µM | [16] > 100 µM

COc1cc(C[P+](c2ccccc2)(c2ccccc2)c2ccccc2)cc(OC)c1OC
inactive: [1] > 100 µM | [2] > 100 µM | [3] > 100 µM | [6] > 100 µM | [7] > 100 µM | [8] > 100 µM | [17] > 100 µM | [18] > 100 µM | [9] > 100 µM | [10] > 100 µM | [11] > 100 µM | [12] > 100 µM | [20] > 100 µM | [14] > 100 µM | [15] > 100 µM | [16] > 100 µM

O=C(O)/C=C/C(=O)N1C/C(=C\c2ccccc2)C(=O)/C(=C/c2ccccc2)C1
inactive: [1] 23.5 µM | [2] 7.26 µM | [3] 1.87 µM | [4] 8.65 µM | [6] 18.2 µM | [7] 1.82 µM | [8] 2.55 µM | [17] 1.9 µM | [18] 21.3 µM | [9] 8.13 µM | [10] 9.84 µM | [11] 6.81 µM | [12] 2.97 µM | [20] 19.9 µM | [14] 7.18 µM | [15] 5.05 µM | [16] 12.6 µM

COC(=O)/C(=N\NC(N)=S)C(C#N)c1ccccc1 (configuration not stated)
inactive: [1] > 100 µM | [2] > 100 µM | [3] > 100 µM | [6] > 100 µM | [7] > 100 µM | [8] > 100 µM | [17] > 100 µM | [18] > 100 µM | [9] > 100 µM | [10] 19 µM | [11] > 100 µM | [12] > 100 µM | [20] > 100 µM | [14] > 100 µM | [15] > 100 µM | [16] > 100 µM

CC(N)Cc1ccc(Cl)cc1 (configuration not stated)
inactive: [1] > 100 µM | [2] > 100 µM | [3] > 100 µM | [6] 59.4 µM | [7] 41 µM | [8] > 100 µM | [17] > 100 µM | [18] > 100 µM | [9] > 100 µM | [10] > 100 µM | [11] > 100 µM | [12] > 100 µM | [20] 50.8 µM | [14] > 100 µM | [15] > 100 µM | [16] > 100 µM
